Laboratory results taken from patent US20160022714A1, “O-GLCNACYLATION TREATMENT FOR ISCHEMIC BRAIN INJURY” (THE RESEARCH FOUNDATION FOR MENTAL HYGIENE, INC., priority 2014, published 2016).
“Also recorded” adds a separate entry of the source.

Columns and labels:
[1] = tested on: O-GlcNAcylation of brain proteins; assay: Western blots for O-GlcNAcylation of brain (striatum) homogenates from drug-treated mice 2 hrs after MCAO; assay type: in vivo, mouse; conditions: for brain O-GlcNAcylation level (change): mice treated prior to ischemia: DON 2.6 μg/mouse, glucosamine 10 mg/mouse, thiamet-G 160 μg/mouse, brain samples 2 hrs after ischemic insult
[2] = tested on: MCAO mouse model (cerebral ischemia-reperfusion injury); assay: Brain infarct size by TTC staining after MCAO for 2 hrs followed by reperfusion for 24 hrs; assay type: in vivo; conditions: vs. saline; for infarct size / ischemia-induced brain damage: DON 2.6 μg/mouse, glucosamine 10 mg/mouse, thiamet-G 160 μg/mouse prior to ischemia, 24 hrs after ischemia-reperfusion
[3] = tested on: MCAO mouse model (cerebral ischemia-reperfusion injury); assay: Scores of motor deficits (5-point neurological scoring) after MCAO for 2 hrs and reperfusion for 1 hr; assay type: in vivo; conditions: vs. saline
[4] = DON 2.6 μg/mouse, glucosamine 10 mg/mouse, thiamet-G 160 μg/mouse prior to ischemia, one hour after ischemia-reperfusion

SMILES | brain O-GlcNAcylation level (change) [1] | infarct size / ischemia-induced brain damage [2] | motor deficits [3, 4] | elevation of O-GlcNAcylation ([1]; thiamet-G 0.1 μg/mouse, icy injection 24 hrs before MCAO, compared with 10 mg glucosamine/mouse i.p.) | elevation of O-GlcNAcylation ([1]; thiamet-G initial dose 160 μg/mouse, 2 hrs after MCAO) [fold] | infarct size ([2]; thiamet-G 0.1 μg/mouse, icy injection, MCAO 2 hrs, reperfusion 24 hrs) | motor deficits ([3]; thiamet-G 0.1 μg/mouse, icy injection, MCAO 2 hrs, reperfusion 1 hr)
[N-]=[N+]=CC(=O)CC[C@H](N)C(=O)O [DON, 6-diazo-5-oxonorleucine] | reduction; also recorded: reduced | aggravated; also recorded: increased | aggravated; also recorded: increased | – | – | – | –
CCN=C1N[C@@H]2[C@@H](O)[C@H](O)[C@@H](CO)O[C@@H]2S1 [thiamet-G] | elevation | more severe brain damage; also recorded: worsened | more severe; also recorded: worsened | comparable elevation | > 6 | reduced | reduced
N[C@H]1C(O)O[C@H](CO)[C@@H](O)[C@@H]1O (stereo partly shown) [glucosamine] | moderate elevation | ameliorated; also recorded: reduced | ameliorated; also recorded: reduced | – | – | – | –
